Laboratory results: patent US20120214743A1, “ITCH SUPPRESSANT” (University of Occupational and Environmental Health, Japan, priority 2009, published 2012)
Ends that are not written are not given here. * marks the point of attachment. SO3H = O=S(=O)(O)*

Legend:
[1] = system: normal human keratinocytes (NHEKs); assay: DNA microarray of mRNA expression in stimulated normal human keratinocytes; assay type: cell-based; settings: histamine 10 μM/mL, SLIGRL-NH2 100 nM
Description: For DNA microarray analysis, total RNA was extracted from NHEKs with the RNeasy Mini Kit (QIAGEN, Valencia, Calif.). Images obtained from a plate reader were analyzed with DNASIS Array (DNA CHIP RESERCH Inc., Hitachi Software Engineering, Tokyo, Japan), according to the manufacturer's instructions.
The values are log2 (mRNA expression level of each stimulated sample/expression level of the control).

ICR mice = assay: SP-induced scratch behavior in ICR mice; assay type: in vivo, mouse; settings: transdermal, 0.5 nmol/site in acetone/olive (3:1), tape-stripped skin, 3-4 minutes before SP 100 nmol/site intradermal; FIG. 3
Description: Since it is considered that external administration of CCK affects keratinocytes, at first, CCK2R agonist was administered transdermally (applying the solution prepared using acetone-olive (3:1)) to itch-related behavior model (ICR mice administered intradermally with SP (100 nmol)).
The hair was clipped over the rostral part of the murine back one or two days prior to experiment. Before behavioral recording, each mouse (4 animals per observation) was put into an acrylic cage (18×23×11 cm) for at least 1 hr for acclamation. An intradermal injection of SP (100 nmol in normal saline per site) induces scratching of the skin around the injected site by the hind paws in mice. CCKs were topically applied in the two ways, percutaenous application and intradermal injection. For percutaneous application, the shaved back skin was stripped with Scotch tape (3M) 6 times the day before the experiment. The mice were painted on the clipped back with 20 μL CCK (0.5 nmol/site) in acetone/olive (3:1) 3-4 minutes before SP injection (100 nmol/site). […] Immediately after treatment, the animals were put back into the same cage and their behavior was videotaped using a digital video camera for 40 minutes. The frequency of scratch toward the injected site by hind paws was counted for the first 20 minutes with the video.

CCK2R = assay: Western blotting of CCK2R in ICR mouse keratinocytes incubated with SP; assay type: cell-based; settings: exposed to SP for 5 or 6 hours, FIG. 2a
Description: (§1) Keratinocytes from ICR mice were stimulated with SP (10^−8 M) in six-well plates (Corning Glass Works) for 0.5-24 hours, harvested with a rubber policeman, and subjected to extraction with RIPA buffer (Wako, Osaka, Japan; Tris-HCl (pH8.0), 150 mm sodium chloride, 0.5% (wt/vol) sodium deoxycholate, 0.1% (wt/vol) SDS, and 1.0% (wt/vol) NP-40 substitute). Protein samples (20 μg) were separated by 8% SDS-polyacrylamide gel electrophoresis and electroblotted onto polyvinylidene difluoride membranes for 2 hours at 180 mA. After blocking with skim milk solution, the membranes were incubated with rabbit anti-mouse CCK1R (SC-33220; 1:1,000, Santa Cruz, Santa Cruz, Calif.) polyclonal antibodies,or CCK2R (SC-33221; 1:1,000, Santa Cruz) polyclonal antibodies, and the reaction was detected with horseradish peroxidase—conjugated goat anti-rabbit IgG (1:3,000, Bio-Rad, Hercules, Calif.). […] Bands were quantified by densitometry with the help of a CS Analyzer version 2.0 (ATTO, Tokyo, Japan). […]
(§2) To determine the effect of SP on keratinocytes, ICR mouse keratinocytes were incubated with SP for 30 min to 24 hours and the expression of CCK2R and CCK1R were analyzed by western blotting. CCK2R was detected with antibodies as 78 kDa band, and increased in keratinocytes exposed to SP for 5 or 6 hours (FIG. 2a). […]

CCK1R = assay: Western blotting of CCK1R in ICR mouse keratinocytes incubated with SP; assay type: cell-based; settings: SP 30 min to 24 hours, FIG. 2b
Description: as §1, §2

Row | Compound | ACTL7B mRNA, log2 (expression level of stimulated sample/expression level of the control) ([1]; NHEKs, Ca 0.6 mM, SP 10^−6 M) | ANKRD6 mRNA, log2 (expression level of stimulated sample/expression level of the control) ([1]; NHEKs, Ca 0.6 mM, SP 10^−6 M) | BUB1B mRNA, log2 (expression level of stimulated sample/expression level of the control) ([1]; NHEKs, Ca 0.6 mM, SP 10^−6 M) | CCK2R mRNA, log2 (expression level of stimulated sample/expression level of the control) ([1]; NHEKs, Ca 0.6 mM, SP 10^−6 M) | FCN3 mRNA, log2 (expression level of stimulated sample/expression level of the control) ([1]; NHEKs, Ca 0.6 mM, SP 10^−6 M) | MAP3K1 mRNA, log2 (expression level of stimulated sample/expression level of the control) ([1]; NHEKs, Ca 0.6 mM, SP 10^−6 M) | MMP9 mRNA, log2 (expression level of stimulated sample/expression level of the control) ([1]; NHEKs, Ca 0.6 mM, SP 10^−6 M) | PDE7B mRNA, log2 (expression level of stimulated sample/expression level of the control) ([1]; NHEKs, Ca 0.6 mM, SP 10^−6 M) | PTN mRNA, log2 (expression level of stimulated sample/expression level of the control) ([1]; NHEKs, Ca 0.6 mM, SP 10^−6 M) | SERPINI2 mRNA, log2 (expression level of stimulated sample/expression level of the control) ([1]; NHEKs, Ca 0.6 mM, SP 10^−6 M) | scratch behavior (frequency of scratch, first 20 minutes) (ICR mice) | other results
1 | NCCc1c[nH]cn1 [histamine, Histamine] | 0.63 log2 | 0.00 log2 | −1.09 log2 | −0.01 log2 | −0.23 log2 | 0.88 log2 | 4.02 log2 | 0.12 log2 | −0.14 log2 | 0.38 log2 |  | CKM mRNA, log2 (expression level of stimulated sample/expression level of the control) ([1]; NHEKs, Ca 0.6 mM, SP 10^−6 M): 1.04 log2; F10 mRNA, log2 (expression level of stimulated sample/expression level of the control) ([1]; NHEKs, Ca 0.6 mM, SP 10^−6 M): 1.36 log2; NDRG4 mRNA, log2 (expression level of stimulated sample/expression level of the control) ([1]; NHEKs, Ca 0.6 mM, SP 10^−6 M): 1.59 log2; changes in the expression levels of CCK2R in stimulated NHEKs [1]: no significant changes
2 | Met-Gly-Trp-Met-Asp-Phe-NH2 (MGWMDF-NH2) [CCK6, cholecystokinin analogue without the tyrosine] |  |  |  |  |  |  |  |  |  |  | no significant reduction | 
3 | Tyr-Met-Gly-Trp-Met-Asp-Phe-NH2 (YMGWMDF-NH2) [CCK7, cholecystokinin analogue in which the tyrosine is not sulfated] |  |  |  |  |  |  |  |  |  |  | no significant reduction | 
4 | Tyr(SO3H)-Met-Gly-Trp-Met-Asp-Phe-NH2 (Y(SO3H)MGWMDF-NH2; N-terminus assumed; SMILES CSCC[C@H](NC(=O)[C@H](Cc1c[nH]c2ccccc12)NC(=O)CNC(=O)[C@H](CCSC)NC(=O)[C@@H](N)Cc1ccc(OS(=O)(=O)O)cc1)C(=O)N[C@@H](CC(=O)O)C(=O)N[C@@H](Cc1ccccc1)C(N)=O) [CCK7S, natural type cholecystokinin, tyrosine at seventh position from C-terminal sulfated] |  |  |  |  |  |  |  |  |  |  | significant reduction | 
5 | Asp-Tyr-Met-Gly-Trp-Met-Asp-Phe-NH2 (DYMGWMDF-NH2) [CCK8, cholecystokinin analogue in which the tyrosine is not sulfated] |  |  |  |  |  |  |  |  |  |  | no significant reduction | 
6 | Ser-Leu-Ile-Gly-Arg-Leu-NH2 (SLIGRL-NH2) [synthetic agonist of PAR-2] | 0.84 log2 | −0.17 log2 | 0.52 log2 | 0.06 log2 | −0.62 log2 | 0.64 log2 | 0.11 log2 | 1.00 log2 | 0.12 log2 | 0.72 log2 |  | ARG1 mRNA, log2 (expression level of stimulated sample/expression level of the control) ([1]; NHEKs, Ca 0.6 mM, SP 10^−6 M): 0.71 log2; CYP17A1 mRNA, log2 (expression level of stimulated sample/expression level of the control) ([1]; NHEKs, Ca 0.6 mM, SP 10^−6 M): 0.92 log2; changes in the expression levels of CCK2R in stimulated NHEKs [1]: no significant changes
7 | Substance P [SP] | 0.99 log2 | 3.20 log2 | 3.06 log2 | 8.67 log2 | 4.50 log2 | 1.06 log2 | 1.12 log2 | 1.02 log2 | 4.04 log2 | 1.00 log2 |  | AR mRNA, log2 (expression level of stimulated sample/expression level of the control) ([1]; NHEKs, Ca 0.6 mM, SP 10^−6 M): 0.99 log2; ARG1 mRNA, log2 (expression level of stimulated sample/expression level of the control) ([1]; NHEKs, Ca 0.6 mM, SP 10^−6 M): 1.69 log2; CKM mRNA, log2 (expression level of stimulated sample/expression level of the control) ([1]; NHEKs, Ca 0.6 mM, SP 10^−6 M): 1.72 log2; CLEC7A mRNA, log2 (expression level of stimulated sample/expression level of the control) ([1]; NHEKs, Ca 0.6 mM, SP 10^−6 M): 1.16 log2; CYP17A1 mRNA, log2 (expression level of stimulated sample/expression level of the control) ([1]; NHEKs, Ca 0.6 mM, SP 10^−6 M): 1.40 log2; F10 mRNA, log2 (expression level of stimulated sample/expression level of the control) ([1]; NHEKs, Ca 0.6 mM, SP 10^−6 M): 1.74 log2; ICAM1 mRNA, log2 (expression level of stimulated sample/expression level of the control) ([1]; NHEKs, Ca 0.6 mM, SP 10^−6 M): 1.16 log2; NDRG4 mRNA, log2 (expression level of stimulated sample/expression level of the control) ([1]; NHEKs, Ca 0.6 mM, SP 10^−6 M): 1.00 log2; RASSF7 mRNA, log2 (expression level of stimulated sample/expression level of the control) ([1]; NHEKs, Ca 0.6 mM, SP 10^−6 M): 1.82 log2; SV2B mRNA, log2 (expression level of stimulated sample/expression level of the control) ([1]; NHEKs, Ca 0.6 mM, SP 10^−6 M): 1.54 log2; CCK2R expression (78 kDa band) in keratinocytes exposed to SP (CCK2R): increased; CCK1R expression in keratinocytes exposed to SP (CCK1R): not augmented
